Results as given in PubChem BioAssay (NCI).
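96-well plates; 48 h exposure; 5 concentrations. Endpoints by linear interpolation between flanking doses. Not reached: highest tested concentration assigned. GI50 = concentration required for 50% inhibition of growth. TGI: total growth inhibition.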

Assays:
Assay in all cases: inhibition of tumour cell growth, NCI panel, 48 h
HOP-92 NSCLC = tested on: HOP-92 NSCLC
MOLT-4 leukemia = tested on: MOLT-4 leukemia
NCI-H522 lung = tested on: NCI-H522 lung
SF-539 CNS = tested on: SF-539 CNS
SK-MEL-5 melanoma = tested on: SK-MEL-5 melanoma
HL-60(TB) leukemia = tested on: HL-60(TB) leukemia
NCI/ADR-RES ovarian = tested on: NCI/ADR-RES ovarian
ACHN renal = tested on: ACHN renal
SK-MEL-2 melanoma = tested on: SK-MEL-2 melanoma
HOP-62 NSCLC = tested on: HOP-62 NSCLC
UACC-257 melanoma = tested on: UACC-257 melanoma
RPMI-8226 leukemia = tested on: RPMI-8226 leukemia
SK-MEL-28 melanoma = tested on: SK-MEL-28 melanoma
786-0 renal = tested on: 786-0 renal
MDA-MB-231 breast = tested on: MDA-MB-231 breast
KM12 colon = tested on: KM12 colon
MCF7 breast = tested on: MCF7 breast
SW-620 colon = tested on: SW-620 colon
LOX IMVI melanoma = tested on: LOX IMVI melanoma
OVCAR-5 ovarian = tested on: OVCAR-5 ovarian
HT29 colon = tested on: HT29 colon
NCI-H226 lung = tested on: NCI-H226 lung
HCC-2998 colon = tested on: HCC-2998 colon
HCT-15 colon = tested on: HCT-15 colon
COLO 205 colon = tested on: COLO 205 colon
SK-OV-3 ovarian = tested on: SK-OV-3 ovarian
SNB-75 CNS = tested on: SNB-75 CNS
OVCAR-8 ovarian = tested on: OVCAR-8 ovarian
A549 NSCLC = tested on: A549 NSCLC
IGROV1 ovarian = tested on: IGROV1 ovarian
OVCAR-3 ovarian = tested on: OVCAR-3 ovarian
SNB-19 CNS = tested on: SNB-19 CNS
UACC-62 melanoma = tested on: UACC-62 melanoma
HCT-116 colon = tested on: HCT-116 colon
OVCAR-4 ovarian = tested on: OVCAR-4 ovarian
CCRF-CEM leukemia = tested on: CCRF-CEM leukemia
EKVX NSCLC = tested on: EKVX NSCLC
NCI-H460 lung = tested on: NCI-H460 lung
RXF 393 renal = tested on: RXF 393 renal
CAKI-1 renal = tested on: CAKI-1 renal
SF-268 CNS = tested on: SF-268 CNS
MALME-3M melanoma = tested on: MALME-3M melanoma
MDA-MB-435 = tested on: MDA-MB-435
K-562 leukemia = tested on: K-562 leukemia
SN12C renal = tested on: SN12C renal
TK-10 renal = tested on: TK-10 renal
HS 578T breast = tested on: HS 578T breast
T-47D breast = tested on: T-47D breast
BT-549 breast = tested on: BT-549 breast
NCI-H23 lung = tested on: NCI-H23 lung
A498 renal = tested on: A498 renal
SR leukemia = tested on: SR leukemia
M14 melanoma = tested on: M14 melanoma
UO-31 renal = tested on: UO-31 renal
U251 CNS = tested on: U251 CNS
DU-145 prostate = tested on: DU-145 prostate

CCC(=O)Nc1ccccc1C#C/C=C\C#Cc1ccccc1SC
GI50 (HOP-92 NSCLC): 3.96 µM | TGI (HOP-92 NSCLC): 78.7 µM | GI50 (MOLT-4 leukemia): 4.46 µM | TGI (MOLT-4 leukemia): > 100 µM | GI50 (NCI-H522 lung): 8.89 µM | TGI (NCI-H522 lung): > 100 µM | GI50 (SF-539 CNS): 14.2 µM | TGI (SF-539 CNS): > 100 µM | GI50 (SK-MEL-5 melanoma): 3.91 µM | TGI (SK-MEL-5 melanoma): 17.4 µM | GI50 (HL-60(TB) leukemia): 1.46 µM | TGI (HL-60(TB) leukemia): > 100 µM | GI50 (NCI/ADR-RES ovarian): 5.15 µM | TGI (NCI/ADR-RES ovarian): 65.2 µM | GI50 (ACHN renal): 30.1 µM | TGI (ACHN renal): > 100 µM | GI50 (SK-MEL-2 melanoma): 0.0742 µM | TGI (SK-MEL-2 melanoma): 3.83 µM | GI50 (HOP-62 NSCLC): 10 µM | TGI (HOP-62 NSCLC): > 100 µM | GI50 (UACC-257 melanoma): 12.1 µM | TGI (UACC-257 melanoma): 59.2 µM | GI50 (RPMI-8226 leukemia): 1.26 µM | TGI (RPMI-8226 leukemia): 11.7 µM | GI50 (SK-MEL-28 melanoma): 8.75 µM | TGI (SK-MEL-28 melanoma): > 100 µM | GI50 (786-0 renal): 33.6 µM | TGI (786-0 renal): > 100 µM | GI50 (MDA-MB-231 breast): 7.92 µM | TGI (MDA-MB-231 breast): > 100 µM | GI50 (KM12 colon): 5.27 µM | TGI (KM12 colon): > 100 µM | GI50 (MCF7 breast): 3.39 µM | TGI (MCF7 breast): 29.7 µM | GI50 (SW-620 colon): 4.62 µM | TGI (SW-620 colon): > 100 µM | GI50 (LOX IMVI melanoma): 5.47 µM | TGI (LOX IMVI melanoma): > 100 µM | GI50 (OVCAR-5 ovarian): 33.3 µM | TGI (OVCAR-5 ovarian): > 100 µM | GI50 (HT29 colon): 5.2 µM | TGI (HT29 colon): > 100 µM | GI50 (NCI-H226 lung): 16.9 µM | TGI (NCI-H226 lung): > 100 µM | GI50 (HCC-2998 colon): 5.09 µM | TGI (HCC-2998 colon): 27.3 µM | GI50 (HCT-15 colon): 4.27 µM | TGI (HCT-15 colon): > 100 µM | GI50 (COLO 205 colon): 9.84 µM | TGI (COLO 205 colon): > 100 µM | GI50 (SK-OV-3 ovarian): 53.7 µM | TGI (SK-OV-3 ovarian): > 100 µM | GI50 (SNB-75 CNS): 4.76 µM | TGI (SNB-75 CNS): > 100 µM | GI50 (OVCAR-8 ovarian): 12.3 µM | TGI (OVCAR-8 ovarian): > 100 µM | GI50 (A549 NSCLC): 3.35 µM | TGI (A549 NSCLC): > 100 µM | GI50 (IGROV1 ovarian): 0.738 µM | TGI (IGROV1 ovarian): 37.3 µM | GI50 (OVCAR-3 ovarian): 8.87 µM | TGI (OVCAR-3 ovarian): 80.6 µM | GI50 (SNB-19 CNS): 43.8 µM | TGI (SNB-19 CNS): > 100 µM | GI50 (UACC-62 melanoma): 4.04 µM | TGI (UACC-62 melanoma): > 100 µM | GI50 (HCT-116 colon): 5.61 µM | TGI (HCT-116 colon): > 100 µM | GI50 (OVCAR-4 ovarian): 30.1 µM | TGI (OVCAR-4 ovarian): > 100 µM | GI50 (CCRF-CEM leukemia): 2.75 µM | TGI (CCRF-CEM leukemia): 23.7 µM | GI50 (EKVX NSCLC): 7.11 µM | TGI (EKVX NSCLC): 78.5 µM | GI50 (NCI-H460 lung): 3.4 µM | TGI (NCI-H460 lung): > 100 µM | TGI (RXF 393 renal): 1.84 µM | GI50 (CAKI-1 renal): 5.18 µM | TGI (CAKI-1 renal): > 100 µM | GI50 (SF-268 CNS): 12.3 µM | TGI (SF-268 CNS): > 100 µM | GI50 (MALME-3M melanoma): 35.1 µM | TGI (MALME-3M melanoma): > 100 µM | GI50 (MDA-MB-435): 1.92 µM | TGI (MDA-MB-435): 6.17 µM | GI50 (K-562 leukemia): 6.37 µM | TGI (K-562 leukemia): > 100 µM | GI50 (SN12C renal): 26.7 µM | TGI (SN12C renal): > 100 µM | GI50 (TK-10 renal): 50.4 µM | TGI (TK-10 renal): > 100 µM | GI50 (HS 578T breast): 17.1 µM | TGI (HS 578T breast): > 100 µM | GI50 (T-47D breast): 8.96 µM | TGI (T-47D breast): > 100 µM | GI50 (BT-549 breast): 14.7 µM | TGI (BT-549 breast): > 100 µM | GI50 (NCI-H23 lung): 22.7 µM | TGI (NCI-H23 lung): > 100 µM | GI50 (A498 renal): 15.1 µM | TGI (A498 renal): > 100 µM | GI50 (SR leukemia): 1.68 µM | TGI (SR leukemia): > 100 µM | GI50 (M14 melanoma): 12 µM | TGI (M14 melanoma): > 100 µM | GI50 (UO-31 renal): 0.838 µM | TGI (UO-31 renal): 28.6 µM | GI50 (U251 CNS): 6.43 µM | TGI (U251 CNS): > 100 µM | GI50 (DU-145 prostate): 40.5 µM | TGI (DU-145 prostate): > 100 µM
